In experiment [1] the target is T1, human α2AAR (Homo sapiens (Human), UniProt P08913). As to the kind of experiment: α2AAR internalization assay with rGFP-CAAX and rGFP-FYVE biosensors. The format is cell-based. To be noted: α2AAR-RlucII/rGFP-CAAX biosensor.
Procedure: Human α2AAR internalization was evaluated by measuring the disappearance of hα2AAR-RlucII from the plasma membrane labeled with rGFP-CAAX and its relocalization in endosome labeled with rGFP-FYVE (39).
For concentration-response curves, BRET signal was measured after 30 min incubation. Plates were read on a Spark microplate reader (Tecan; Mannedorf, Switzerland) using the BRET2 manufacturer settings.
Another experiment concerns the target α2AAR F427^7.39 mutant (Homo sapiens (Human), UniProt P08913, F427A). As to the kind of experiment: Gi activation (BRET) at α2AAR F427^7.39 mutant. Format: cell-based. Here is the method: (§1) Investigating the sensitivity of selected ligands to the receptor mutants α2AAR-D128^3.32A, α2AAR-D128^3.32T, α2AAR-D128^3.32L, α2AAR-S215^5.42A, α2AAR-Y409^6.55A, α2AAR-Y409^6.55T, α2AAR-Y409^6.55F, α2AAR-F427^7.39F, α2AAR-Y431^7.43A, and α2AAR-Y431^7.43F was determined by monitored G protein stimulation as described above transfecting the appropriate receptor together with Gαi1-RLucII and Gβ1/Gγ1-GFP10. […] Three to ten experiments were done in duplicate.
(§2) The sensitivity of selected ligands to the receptor mutants α2AAR-D128^3.32A, α2AAR-D128^3.32T, α2AAR-D128^3.32L, α2AAR-S215^5.42A, α2AAR-Y409^6.55A, α2AAR-Y409^6.55T, α2AAR-Y409^6.55F, α2AAR-F427^7.39F, α2AAR-Y431^7.43A, and α2AAR-Y431^7.43F was monitored by G protein activation as described above transfecting the appropriate receptor together with Gαi1-RLucII and Gβ1/Gγ2-GFP10. […] Similarly, the effect of the α2AAR-D128^3.32A, α2AAR-S215^5.42A, α2AAR-Y409^6.55A, α2AAR-Y409^6.55F, α2AAR-F427^7.39F, α2AAR-Y431^7.43A, and α2AAR-Y431^7.43F mutations on arrestin recruitment was evaluated as described above transfecting the appropriate receptor together with CAAX-rGFP, GRK2 and β-arrestin-2-RLucII. Data was analyzed as ligand induced changes in BRET compared to vehicle (deltaBRET). Three to seven experiments were done in duplicate.

Experiment [2] has as its target T1, human α2AAR. Nature of the experiment: DiscoverX HitHunter cAMP G-protein activation assay.
Procedure: DiscoverX HitHunter cAMP G-protein activation assay. […] Freezer stock cAMP Hunter cell lines were expanded, then seeded in a total volume of 20 uL into white walled, 384-well microplates and incubated at 37° C. prior to testing. For agonist determination, cells were incubated with compound samples in the presence of EC80 forskolin to induce response. Media was aspirated from cells and replaced with 15 uL 2:1 HBSS/10 mM Hepes: cAMP XS+Ab reagent. Intermediate dilution of sample stocks was performed to generate 4× sample in assay buffer containing 4× EC80 forskolin. […] Finally assay vehicle concentration was 1%. After sample incubation assay signal was generated through incubation with 20 uL cAMP XS+ED/CL lysis cocktail for one hour followed by incubation with 20 uL cAMP XS+EA reagent for three hours at room temperature. Microplates were read following signal generation with a PerkinElmer Envision Instrument for chemiluminescent signal detection. Compound activity was analyzed using CBIS data analysis suite. For Gi agonist mode, percentage activity is calculated using the following formula: % Activity=100%×(1−(mean RLU of test sample−mean RLU of MAX control)/(mean RLU of vehicle control−mean RLU of MAX control)). […] Each measurement was done in duplicate.
DiscoverX HitHunter cAMP G-protein activation assay. […] Freezer stock cAMP Hunter cell lines were expanded, then seeded in a total volume of 20 μL into white walled, 384-well microplates and incubated at 37° C. prior to testing. For agonist determination, cells were incubated with compound samples in the presence of EC50 forskolin to induce response. Media was aspirated from cells and replaced with 15 μL 2:1 HBSS/10 mM Hepes: cAMP XS+Ab reagent. Intermediate dilution of sample stocks was performed to generate 4× sample in assay buffer containing 4× EC80 forskolin. […] Finally assay vehicle concentration was 1%. After sample incubation assay signal was generated through incubation with 20 μL cAMP XS+ED/CL lysis cocktail for one hour followed by incubation with 20 μL cAMP XS+EA reagent for three hours at room temperature. Microplates were read following signal generation with a PerkinElmer Envision Instrument for chemiluminescent signal detection. Compound activity was analyzed using CBIS data analysis suite. For Gi agonist mode, percentage activity is calculated using the following formula: % Activity=100%×(1−(mean RLU of test sample−mean RLU of MAX control)/(mean RLU of vehicle control−mean RLU of MAX control)). […] Each measurement was done in duplicate.
A short description of a further experiment: analgesia in vivo. To be noted: result in words, Table 6.
Another experiment deals with α2AAR-S215^5.42A (Homo sapiens (Human), UniProt P08913, S215A). Nature of the experiment: Gi activation (BRET) at α2AAR S215^5.42A mutant. Format: cell-based. To be noted: versus wild type. Here is the method:
as §1, §2

T1 sequence (P08913 whole entry): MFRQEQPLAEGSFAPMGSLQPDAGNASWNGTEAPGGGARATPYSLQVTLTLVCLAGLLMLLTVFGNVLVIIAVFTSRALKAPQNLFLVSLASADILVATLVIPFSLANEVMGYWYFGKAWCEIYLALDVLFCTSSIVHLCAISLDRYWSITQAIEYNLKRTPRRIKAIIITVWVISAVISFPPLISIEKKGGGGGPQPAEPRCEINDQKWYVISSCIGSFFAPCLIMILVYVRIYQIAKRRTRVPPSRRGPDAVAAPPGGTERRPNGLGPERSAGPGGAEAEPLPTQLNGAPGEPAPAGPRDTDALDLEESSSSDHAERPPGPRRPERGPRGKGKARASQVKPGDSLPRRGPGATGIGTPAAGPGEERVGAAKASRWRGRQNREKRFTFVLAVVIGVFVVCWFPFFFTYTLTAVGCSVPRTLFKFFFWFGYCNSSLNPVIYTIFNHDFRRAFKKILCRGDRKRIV
Sequence of α2AAR F427^7.39 mutant (P08913 whole entry F427A): as the sequence (P08913 whole entry) above, with F427A counted along it
Sequence of α2AAR-S215^5.42A (P08913 whole entry S215A): as the sequence (P08913 whole entry) above, with S215A counted along it

In the case of `Fc1cccc2c(Nc3ccncc3)cccc12` [Compound 7075, N-(5-fluoronaphthalen-1-yl)pyridin-4-amine], the “Disappearance of α2AAR from the plasma membrane (internalization)” value on human α2AAR [1] is listed as “no effect”. The “Gi activity at F427^7.39 substitution” value on α2AAR F427^7.39 mutant is given as “eliminated”. Further, a half-maximal response on human α2AAR [2] (EC50) required 18 nM. Also, at human α2AAR [2] (read-out: Gi/o Emax), the Emax was 96%. In addition, the analgesic in vivo entry in the experiment “analgesia in vivo” was “analgesic in vivo”. Also, the “Fold improvement of Gi potency at S215^5.42A” value on α2AAR-S215^5.42A stood at 11 fold.

Broadly, the EC50 is the midpoint of the concentration-response curve. A low value points to an effect from little substance.

The record behind these values is patent US20250032476A1, “ALPHA-2A ADRENERGIC RECEPTOR MODULATORS AND USES THEREOF” (The Regents of the University of California, priority 2021, published 2025).
